Laboratory results reported in patent US20260174677A1, “METHODS OF TREATING INSULIN RESISTANCE AND ASSOCIATED DISORDERS” (The University of Melboune, priority 2022, published 2026).

Test system: CSPG-ECM components (mixed CSPGs, aggrecan, chondroitin 4-sulfate)
Assay: CSPG-ECM binding assay with insulin-FITC in vitro
Protocol: To determine the interaction of insulin with CSPG-ECM components in vitro, flat-bottom 96-well plates were first coated with 10 μg/ml poly-L-lysine overnight, followed by a rinsing with water. A purified CSPGs mix containing neurocan, phosphacan, versican and aggrecan (CC117, Merck Millipore, MA), purified aggrecan ([…], Merck Millipore, MA) or purified chondroitin 4-sulfate ([…], Selleck Chemicals, TX), were coated onto the 96-well plates at a concentration of 10 μg/ml for 4 h at RT, followed by a rinse with water. Insulin-FITC was incubated on plates containing ECM at concentrating ranging from 5 ng/ml-1 mg/ml for 2 h at RT and protected from light. Control wells contained either no ECM, bovine serum albumin (10 μg/ml) or poly-L-lysine alone. Wells were washed 3 times with water and imaged at 495 nm using a SPECTROstar Nano Microplate Reader (BMG Labtech, Germany). To digest CSPG-ECM or to negate CSPG-ECM negative charge. wells were incubated with either chABC (0.5 U/ml) or poly-l-arginine (10 μg/ml, […], Merck Millipore, MA) for 1 h at 37° C. after the ECM coating, washed 3 times with water and then incubated with insulin-FITC.

Row | binding of insulin-FITC to mixed CSPGs, aggrecan and C4S (2-hours incubation on coated plates) | insulin-ECM interactions (insulin-FITC with CSPG mix) in the presence of the agent (in the presence of poly-arginine) | Substance
1 | specific dose-dependent binding |  | insulin-FITC: fluorescein isothiocyanate tagged insulin
2 |  | significantly reduced | poly-arginine
